Source: US9657018B2, “Antagonists acting at multiple prostaglandin receptors for the treatment of inflammation” (Allergan, Inc., priority 2014, dated 2017)
Where a name gives a salt, the structure may show the parent alone.

Biological target: T1, human prostanoid TP receptor (Homo sapiens, UniProt P21731)
T1 construct: expressed in transfected cells
T1 sequence (P21731 1-343): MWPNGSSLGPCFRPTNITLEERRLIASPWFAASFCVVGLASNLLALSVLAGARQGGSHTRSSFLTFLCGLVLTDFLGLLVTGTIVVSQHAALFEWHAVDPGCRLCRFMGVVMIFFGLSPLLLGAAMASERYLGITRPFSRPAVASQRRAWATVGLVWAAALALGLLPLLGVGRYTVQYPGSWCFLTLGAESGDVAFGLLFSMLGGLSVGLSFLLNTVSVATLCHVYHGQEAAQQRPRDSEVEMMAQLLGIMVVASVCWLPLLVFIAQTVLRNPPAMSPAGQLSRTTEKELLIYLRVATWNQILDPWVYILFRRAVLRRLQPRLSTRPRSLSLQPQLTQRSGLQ
Assay: FLIPR Ca2+ signaling antagonist assay, TP receptor stable cell line
Assay type: cell-based
Design: key to FLIPR data TP (Kb): PAg = partial agonist; Ag = agonist; NA = not active
Conditions: human recombinant TP in HEK-293 EBNA cells; standard agonist U-46619; NA = no antagonism or Kb>=10,000 nM
Method: The above compounds were tested for PG antagonist activity as follows using human recombinant prostanoid receptor (DP1, EP1-4, FP, IP and TP) stable cell lines:
In order to measure the response of Gs and Gi coupled prostanoid receptors as a Ca^2+ signal, chimeric G protein cDNAs were used. Stable cell lines over-expressing human prostanoid DP1, EP1-4, FP, IP, and TP receptors were established as follows:
Briefly, human prostanoid DP1, EP2, and EP4 receptor cDNAs were co-transfected with chimeric Gqs cDNA containing a haemagglutanin (HA) epitope; human prostanoid EP3 receptors were co-transfected with chimeric Gqi-HA; human EP1, FP, IP, and TP receptor cDNAs were expressed with no exogenous G-proteins. Gqs and Gqi chimeric cDNAs (Molecular Devices, Sunnyvale, Calif., U.S.A.), as well as cDNAs of prostanoid receptors, were cloned into a pCEP4 vector with a hygromycin B selection marker. Transfection into HEK-293 EBNA (Epstein-Barr virus nuclear antigen) cells was achieved by the FuGENE 6 transfection Reagent (Roche Applied Science, Indianapolis, Ind., USA). Stable transfectants were selected according to hygromycin resistance. Because Gqs and Gqi contained an HA epitope, G-protein expression was detected by Western blotting analysis using anti-mouse HA monoclonal antibody and horseradish peroxidase (HRP)-conjugated secondary antibody, while functional expression of prostanoid receptors was detected by FLIPR screening (Matias et al., 2004). These stable cell lines were validated using previously published antagonists at 10 μM against serial dilutions of standard agonists by FLIPR functional assays for Ca^2+ Signaling (as described below).
Ca^2+ signaling studies were performed using a FLIPR TETRA system (Molecular Devices, Sunnyvale, Calif., USA) in the 384-format. This is a high-throughput instrument for cell-based assays to monitor Ca^2+ signaling associated with GPCRs and ion channels. Cells were seeded at a density of 5×10^4 cells/well in BioCoat poly-D-lysine coated, black wall, clear bottom 384-well plates (BD Biosciences, Franklin lakes, NJ, USA) and allowed to attach overnight in an incubator at 37° C. The cells were then washed twice with HBSS-HEPES buffer (Hanks' balanced salt solution without bicarbonate and phenol red, 20 mM HEPES, pH 7.4) using an ELx405 Select CW Microplate Washer (BioTek, Winooski, Vt., USA). After 60 min of dye-loading in the dark using the Ca^2+-sensitive dye Fluo-4AM (Invitrogen, Carlsbad, Calif., USA), at a final concentration of 2×10^−6M, the plates were washed 4 times with HBSS-HEPES buffer to remove excess dye and leaving 50 μl of buffer in each well. The plates were then placed in the FLIPR TETRA instrument and allowed to equilibrate at 37° C. AGN-211377 was added in a 25 μl volume to each well to give final concentrations of 0.1 μl. M, 0.4M, 1 μM, 3 μl. M, 10 μl. M, and 30 μl. M; or 0.067 μM, 0.4M, 0.67 μM, and 1 μM for cells over-expressing TP receptors. After 4.5 minutes, a 7-point serial dilution of the standard agonist for the corresponding receptor, in a 25 μl volume was injected at the final concentrations from 10^−11M to 10^−5M in 10-fold serial dilution increments for cells expressing human recombinant DP1, EP1, EP2, EP3, EP4, FP, and IP receptors. The dose range for the standard agonist for human recombinant TP receptors was from 10^−12M to 10^−6M. HBSS-HEPES buffer was used as the negative control for the standard agonists. Cells were excited with LED (light emitting diode) excitation at 470-495 nm and emission was measured through an emission filter at 515-575 nm. Assay plates were read for 3.5 minutes using the FLIPR^TETRA. The peak increase in fluorescence intensity was recorded for each well. On each plate, negative controls, dose response of positive controls, and co-treatments of antagonist-agonist for each dose were in triplicates. Standard agonists were as follows: DP=BW 245C, EP1-EP4=PGE2, FP=17-phenyl-PGF2a, IP=Cicaprost, and TP=U-46619. […]

| SMILES | Kb | FLIPR data TP (Kb) |
| --- | --- | --- |
| CC(C)Cn1ncc2cc(Cl)cc(Cn3ncc4cc(C(=O)O)ccc43)c21 [Compound 41, 1-(5-Chloro-1-isobutyl-1H-indazol-7-ylmethyl)-1H-indazole-5-carboxylic acid] | 40 nM |  |
| CC(C)Cn1ncc2cc(Br)cc(Cn3ncc4cc(C(=O)O)ccc43)c21 [Compound 42, 1-(5-Bromo-1-isobutyl-1H-indazol-7-ylmethyl)-1H-indazole-5-carboxylic acid] | 160 nM |  |
| CC(C)Cn1ncc2cc(F)cc(Cn3ncc4cc(C(=O)O)ccc43)c21 [Compound 43, 1-(5-Fluoro-1-isobutyl-1H-indazol-7-ylmethyl)-1H-indazole-5-carboxylic acid] | 450 nM |  |
| CC(C)Cn1ncc2cc(C(F)(F)F)cc(Cn3ncc4cc(C(=O)O)ccc43)c21 [Compound 44, 1-(1-Isobutyl-5-trifluoromethyl-1H-indazol-7-ylmethyl)-1H-indazole-5-carboxylic acid] |  | Ag |
| CC(C)Cn1ncc2cc(OC(F)(F)F)cc(Cn3ncc4cc(C(=O)O)ccc43)c21 [Compound 45, 1-(1-Isobutyl-5-trifluoromethoxy-1H-indazol-7-ylmethyl)-1H-indazole-5-carboxylic acid] |  | Ag |
| CC(C)n1ncc2cc(Br)cc(Cn3ncc4cc(C(=O)O)ccc43)c21 [Compound 46, 1-(5-Bromo-1-isopropyl-1H-indazol-7-ylmethyl)-1H-indazole-5-carboxylic acid] | 1400 nM |  |
| CCC(CC)Cn1ncc2cc(Br)cc(Cn3ncc4cc(C(=O)O)ccc43)c21 [Compound 47, 1-[5-Bromo-1-(2-ethyl-butyl)-1H-indazol-7-ylmethyl]-1H-indazole-5-carboxylic acid] | 700 nM |  |
| CCCn1ncc2cc(Cl)cc(Cn3ncc4cc(C(=O)O)ccc43)c21 [Compound 48] | 740 nM |  |

More lines, now with the values ahead:

| Kb | FLIPR data TP (Kb) | SMILES |
| --- | --- | --- |
| 170 nM |  | CC(C)Cn1ncc2cc(Cl)cc(Cn3ncc4cc(C(=O)O)cnc43)c21 [Compound 49, 1-(5-Chloro-1-isobutyl-1H-indazol-7-ylmethyl)-1H-pyrazolo[3,4-b]pyridine-5-carboxylic acid] |
| 5000 nM |  | CC(C)Cn1ncc2cc(Cl)cc(Cn3cnc4cc(C(=O)O)ccc43)c21 [Compound 50, 1-(5-Chloro-1-isobutyl-1H-indazol-7-ylmethyl)-1H-benzoimidazole-5-carboxylic acid] |
| 280 nM |  | CC(C)Cn1ncc2cc(Cl)cc(Cn3cnc4cc(C(=O)O)cnc43)c21 [Compound 51, 3-(5-Chloro-1-isobutyl-1H-indazol-7-ylmethyl)-3H-imidazo[4,5-b]pyridine-6-carboxylic acid] |
| 20 nM |  | CC(C)Cn1ncc2cc(Cl)cc(Cn3ccc4cc(C(=O)O)cnc43)c21 [Compound 52, 1-(5-Chloro-1-isobutyl-1H-indazol-7-ylmethyl)-1H-pyrrolo[2,3-b]pyridine-5-carboxylic acid] |
| 1000 nM |  | Cc1nn(Cc2cc(Br)cc3cnn(CC(C)C)c23)c2ccc(C(=O)O)cc12 [Compound 53, 1-(5-Bromo-1-isobutyl-1H-indazol-7-ylmethyl)-3-methyl-1H-indazole-5-carboxylic acid] |
| 1600 nM |  | Cc1nn(Cc2cc(Br)cc3cnn(CC(C)C)c23)c2ncc(C(=O)O)cc12 [Compound 54, 1-(5-Bromo-1-isobutyl-1H-indazol-7-ylmethyl)-3-methyl-1H-pyrazolo[3,4-b]pyridine-5-carboxylic HCl salt] |
|  | Ag | CC(C)Cn1ncc2cc(C(F)(F)F)cc(Cn3cnc4cc(C(=O)O)ccc43)c21 [Compound 55, 1-(1-Isobutyl-5-trifluoromethyl-1H-indazol-7-ylmethyl)-1H-benzoimidazole-5-carboxylic acid] |
| 30 nM |  | CC(C)Cn1ncc2cc(OC(F)(F)F)cc(Cn3cnc4cc(C(=O)O)ccc43)c21 [Compound 56, 1-(1-Isobutyl-5-trifluoromethoxy-1H-indazol-7-ylmethyl)-1H-benzoimidazole-5-carboxylic acid] |
| > 10000 nM |  | CC(C)Cn1ncc2cc(Cl)cc(Cc3ncc4cc(C(=O)O)ccn34)c21 [Compound 61, 3-[(5-Chloro-1-isobutyl-indazol-7-yl)methyl]imidazo[1,5-a]pyridine-7-carboxylic acid] |
| 1300 nM |  | CC(C)Cn1ncc2cc(Cl)cc(Cn3nc(N)c4cc(C(=O)O)ccc43)c21 [Compound 68, 3-Amino-1-[(5-chloro-1-isobutyl-indazol-7-yl)methyl]indazole-5-carboxylic acid] |
| 300 nM |  | CNc1nn(Cc2cc(Cl)cc3cnn(CC(C)C)c23)c2ccc(C(=O)O)cc12 [Compound 70, 1-[(5-Chloro-1-isobutyl-indazol-7-yl)methyl]-3-(methylamino)indazole-5-carboxylic acid] |
